Our source for the TGI values is PubChem BioAssay (NCI).

Among the test systems are A549 NSCLC; BT-549 breast; HCC-2998 colon; HT29 colon; LOX IMVI melanoma; M14 melanoma; MDA-MB-435; NCI-H23 lung; NCI-H460 lung; RXF 393 renal; SK-MEL-28 melanoma; SR leukemia; UACC-62 melanoma.
Experiment in all cases: NCI tumour cell line growth inhibition, 48 h

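Method: 48-hour compound exposure of cells in 96-well plates, five concentrations, linear interpolation of endpoints. TGI: concentration producing complete growth inhibition.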

For the compound `COc1cc2c(cc1OC)C(=O)N(c1ccc(O)cc1)C2`, the TGI in the experiment on A549 NSCLC, in the experiment with BT-549 breast, in the experiment with HCC-2998 colon, in the experiment on HT29 colon, with LOX IMVI melanoma and with M14 melanoma was above 100 µM each time. The TGI in the experiment with MDA-MB-435, with NCI-H23 lung, in the experiment on NCI-H460 lung, in the experiment with RXF 393 renal, in the experiment on SK-MEL-28 melanoma and in the experiment with SR leukemia was above 100 µM each time. For the same compound, in the experiment on UACC-62 melanoma, the TGI was above 100 µM.

For `CCOC(=O)NNC(=O)NCCNC(=O)NNC(=O)OCC`, the TGI in the experiment with A549 NSCLC, with BT-549 breast, with HCC-2998 colon, with HT29 colon, in the experiment with LOX IMVI melanoma and with M14 melanoma was above 100 µM each time. Also, the TGI with MDA-MB-435, in the experiment with NCI-H23 lung, in the experiment with NCI-H460 lung, in the experiment with RXF 393 renal, in the experiment on SK-MEL-28 melanoma and in the experiment on SR leukemia was above 100 µM in each case. In the experiment with UACC-62 melanoma, this compound came in with a TGI above 100 µM.

Consider `c1cc(-c2cscc2-c2ccsc2)cs1`, for which the TGI was above 100 µM with A549 NSCLC; above 100 µM in the experiment with BT-549 breast; 91.8 µM with HCC-2998 colon; above 100 µM in the experiment on HT29 colon; above 100 µM in the experiment on LOX IMVI melanoma; above 100 µM with M14 melanoma. Moreover, the TGI with MDA-MB-435, with NCI-H23 lung, with NCI-H460 lung, with RXF 393 renal, in the experiment on SK-MEL-28 melanoma and with SR leukemia was above 100 µM in each case. Besides, the TGI in the experiment on UACC-62 melanoma is above 100 µM.

On to `CSc1n[nH]c(N)c1C(=O)Nc1ccc(Cl)cc1`, for which the TGI in the experiment with A549 NSCLC, with BT-549 breast, with HCC-2998 colon, in the experiment on HT29 colon, with LOX IMVI melanoma and in the experiment with M14 melanoma was above 100 µM each time. For the same compound, the TGI is above 100 µM with MDA-MB-435; above 100 µM in the experiment on NCI-H23 lung; above 100 µM with NCI-H460 lung; 60.7 µM with RXF 393 renal; above 100 µM in the experiment with SK-MEL-28 melanoma; above 100 µM in the experiment on SR leukemia. In addition, the TGI in the experiment with UACC-62 melanoma was above 100 µM.

For `COC(=O)C1Cc2c(C)cccc2C1=O` (stereo not drawn), the TGI with A549 NSCLC, in the experiment with BT-549 breast, in the experiment on HCC-2998 colon, with HT29 colon, in the experiment with LOX IMVI melanoma and in the experiment on M14 melanoma was above 100 µM in each case. Besides, the TGI in the experiment on MDA-MB-435, with NCI-H23 lung, in the experiment with NCI-H460 lung, in the experiment with RXF 393 renal, in the experiment with SK-MEL-28 melanoma and in the experiment on SR leukemia was above 100 µM in each case. Besides, the TGI in the experiment on UACC-62 melanoma was above 100 µM.

Take `CCOC(=O)C1(Cc2ccc(C)cc2)Cc2ccc(C)cc2C1=O` (stereo not drawn): the TGI is above 100 µM in the experiment on A549 NSCLC; 80.8 µM in the experiment with BT-549 breast; above 92.7 µM in the experiment on HCC-2998 colon; 49.1 µM with HT29 colon; above 65 µM in the experiment on LOX IMVI melanoma; 47.3 µM with M14 melanoma. For the same compound, the TGI was 12.2 µM in the experiment on MDA-MB-435; above 94.7 µM in the experiment with NCI-H23 lung; 82.4 µM in the experiment on NCI-H460 lung; 29.5 µM in the experiment on RXF 393 renal; above 100 µM in the experiment with SK-MEL-28 melanoma; 68.8 µM in the experiment with SR leukemia. This compound had a TGI in the experiment with UACC-62 melanoma above 100 µM.

Take `CCC1(O)C=CC(=O)C=C1`: the TGI in the experiment on A549 NSCLC is above 100 µM; in the experiment on BT-549 breast, above 100 µM; with HCC-2998 colon it was above 100 µM; with HT29 colon, above 100 µM; in the experiment with LOX IMVI melanoma it was 32.4 µM; in the experiment with M14 melanoma it was 40.4 µM. In addition, the TGI in the experiment with MDA-MB-435 was above 100 µM; in the experiment on NCI-H23 lung, 69.3 µM; with NCI-H460 lung, above 83.2 µM; in the experiment with RXF 393 renal, 38.2 µM; in the experiment with SK-MEL-28 melanoma, 57.6 µM; with SR leukemia it was above 100 µM. The TGI in the experiment with UACC-62 melanoma came out at 43.6 µM.

In the case of `CC(=O)N[C@@H](Cc1ccc(O)cn1)C(=O)NCc1cccc(F)c1`, the TGI in the experiment with A549 NSCLC, in the experiment on BT-549 breast, in the experiment on HCC-2998 colon, in the experiment on HT29 colon, in the experiment with LOX IMVI melanoma and in the experiment with M14 melanoma was above 100 µM each time. Moreover, the TGI in the experiment on MDA-MB-435, in the experiment with NCI-H23 lung, in the experiment with NCI-H460 lung, in the experiment on RXF 393 renal, in the experiment with SK-MEL-28 melanoma and in the experiment on SR leukemia was above 100 µM in each case. In the experiment on UACC-62 melanoma, this compound gave a TGI above 100 µM.

As for `O=C1N[C@H]2c3c(Cl)sc(Cl)c3C(=O)[C@H]2O1`, the TGI is above 100 µM in the experiment on A549 NSCLC; 45 µM in the experiment on BT-549 breast; 19.9 µM in the experiment on HCC-2998 colon; 13.8 µM with HT29 colon; 13.9 µM with LOX IMVI melanoma; 52.6 µM with M14 melanoma. Besides, the TGI with MDA-MB-435 is 36 µM; with NCI-H23 lung it was 29 µM; in the experiment on NCI-H460 lung, 37 µM; with RXF 393 renal, above 79.8 µM; in the experiment with SK-MEL-28 melanoma, 24.7 µM; in the experiment on SR leukemia, 5.81 µM. The same compound yielded a TGI in the experiment with UACC-62 melanoma of 36.4 µM.

Turning to `COC1/C=C\C=C(/C)C(=O)NC2=CC(=O)C(NCCCl)=C(CC(C)CC(OC)C(O)C(C)/C=C(/C)C1OC(N)=O)C2=O` (stereo not drawn), the TGI in the experiment with A549 NSCLC amounted to 14.3 µM; in the experiment on BT-549 breast it was 2.85 µM; in the experiment with HCC-2998 colon it was 1 µM; with HT29 colon, 1.92 µM; in the experiment with LOX IMVI melanoma, 0.575 µM; with M14 melanoma it was 2.48 µM. Moreover, the TGI came to 3.72 µM in the experiment with MDA-MB-435; 1.27 µM in the experiment with NCI-H23 lung; 2.52 µM in the experiment with NCI-H460 lung; 1.2 µM in the experiment on RXF 393 renal; 2.52 µM with SK-MEL-28 melanoma; 1.67 µM in the experiment on SR leukemia. Further, the TGI with UACC-62 melanoma was determined as 1.33 µM.

For the compound `CN(NC(=O)c1ccco1)C1=NCCCCN1`, the TGI in the experiment on A549 NSCLC, in the experiment on BT-549 breast, in the experiment on HCC-2998 colon, in the experiment on HT29 colon, with LOX IMVI melanoma and with M14 melanoma was above 100 µM each time. For the same compound, the TGI in the experiment with MDA-MB-435, in the experiment with NCI-H23 lung, in the experiment on NCI-H460 lung, in the experiment with RXF 393 renal, in the experiment on SK-MEL-28 melanoma and in the experiment on SR leukemia was above 100 µM in each case. The same compound yielded a TGI with UACC-62 melanoma above 100 µM.

With `N/C(CC/C(N)=N\O)=N\O`, the TGI in the experiment on A549 NSCLC, with BT-549 breast, with HCC-2998 colon, in the experiment on HT29 colon, in the experiment with LOX IMVI melanoma and in the experiment on M14 melanoma was above 100 µM in each case. Also, the TGI in the experiment with MDA-MB-435, in the experiment with NCI-H23 lung, in the experiment with NCI-H460 lung, with RXF 393 renal, in the experiment on SK-MEL-28 melanoma and in the experiment on SR leukemia was above 100 µM throughout. This compound displayed a TGI with UACC-62 melanoma above 100 µM.

For the compound `CCCCCCCCCCCCNC(=O)NCC(OCC)OCC`, the TGI in the experiment on A549 NSCLC, in the experiment with BT-549 breast, with HCC-2998 colon, in the experiment with HT29 colon, in the experiment with LOX IMVI melanoma and with M14 melanoma was above 10 µM each time. The TGI in the experiment on MDA-MB-435, in the experiment with NCI-H23 lung, with NCI-H460 lung, in the experiment on RXF 393 renal, in the experiment with SK-MEL-28 melanoma and with SR leukemia was above 10 µM throughout. The TGI in the experiment with UACC-62 melanoma was above 10 µM.

As for `O=C(Cc1ccc(Cl)c(Cl)c1)NCCCN1CCN(CCCN2CCCCC2)CC1`, the TGI is 49.5 µM with A549 NSCLC; 57.4 µM in the experiment on BT-549 breast; 9.92 µM in the experiment with HCC-2998 colon; 29.9 µM with HT29 colon; 30.2 µM in the experiment with LOX IMVI melanoma; 43.1 µM in the experiment with M14 melanoma. Also, the TGI in the experiment with MDA-MB-435 is 4.11 µM; in the experiment on NCI-H23 lung, 42.6 µM; in the experiment on NCI-H460 lung, 33.6 µM; with RXF 393 renal, 31.1 µM; in the experiment with SK-MEL-28 melanoma, 4.95 µM; with SR leukemia, 29 µM. The compound further had a TGI in the experiment with UACC-62 melanoma of 13.8 µM.

For `COC(=O)OC[C@H]1O[C@@H](n2cc(C)c(=O)[nH]c2=O)CC1OC(=O)OC` (stereo partly drawn), the TGI with A549 NSCLC, in the experiment with BT-549 breast, in the experiment with HCC-2998 colon, in the experiment with HT29 colon, in the experiment on LOX IMVI melanoma and in the experiment on M14 melanoma was above 100 µM in each case. The TGI in the experiment with MDA-MB-435, in the experiment with NCI-H23 lung, in the experiment with NCI-H460 lung, in the experiment with RXF 393 renal, with SK-MEL-28 melanoma and in the experiment on SR leukemia was above 100 µM in each case. Further, the TGI in the experiment with UACC-62 melanoma is above 100 µM.

Turning to `CCOC(=O)CC(C)C(C#N)(OP1(=O)OC(c2ccccc2)C(C)N1C)c1ccccc1` (stereo not drawn), the TGI with A549 NSCLC, in the experiment on BT-549 breast, in the experiment on HCC-2998 colon, in the experiment on HT29 colon, in the experiment on LOX IMVI melanoma and with M14 melanoma was above 100 µM in each case. Also, the TGI in the experiment on MDA-MB-435, with NCI-H23 lung, in the experiment with NCI-H460 lung, in the experiment with RXF 393 renal, in the experiment on SK-MEL-28 melanoma and in the experiment with SR leukemia was above 100 µM each time. In the experiment on UACC-62 melanoma, this compound showed a TGI above 100 µM.
